In US4243679A, “S-(3-Methyl-2-butenyl)cysteine” (priority 1978, dated 1981):
Where two headings read alike, the source gives them in different places.

Legend:
[1] = tested on: tracheobronchial secretion; experiment: Secretogogue activity, Mawatari's technique (bronchial elimination of sodium fluoresceine), mouse; type: in vivo
Protocol: (§1) The capacity of increasing tracheobronchial secretion was determined by the technique of bronchial elimination of sodium fluoresceine (Mawatari, Kagoshima Daigak Igaku Zasshi, 27, 561 (1976)) on two animal species and by two different administration routes: oral and parenteral.
(§2) Secretogogue activity - Mawatari's technique
(§3) Three dose levels n = 15-40 = number of test animals
(§4) Male animals were used -

[2] = tested on: tracheobronchial secretion; experiment: Secretogogue activity, Mawatari's technique (bronchial elimination of sodium fluoresceine), rat; type: in vivo
Protocol: as §1, §2, §3, §4

[3] = tested on: tracheobronchial secretion; experiment: Secretogogial activity, bronchial elimination of sodium fluoresceine, two animal species (overall statement); type: in vivo, Mouse; Rat; conditions: oral and parenteral
Protocol: as §1

mucus = experiment: Expectorant activity, Perry-Boyd technique; type: in vivo; conditions: rabbit; for % increase with regard to controls: fluid collected
Source text: Determination of the expectorant activity was achieved by the technique of collecting mucus of anaesthetized rabbits breathing in conditioned air at body humidity and temperature (Perry and Boyd, J. Pharmacol. Exp. Ther., 23 65(194l)), and measuring the percentage increase of fluid collected in relation to controls.
Expectorant activity. Perry-Boyd technique, in
rabbit. Oral route, n = 12 = number of test

respiratory mucus = experiment: Modification of respiratory mucus composition, Giraldez-Gras method; type: in vivo, rabbit
Protocol: By means of an original technique (Giraldez and Gras), XXVI Congr. IUPS, Abstr. 777, Paris 1977)) which allows the collection of abundant samples of mucus on conscious animals and on consecutive days, the amount of eliminated mucus, its biochemical composition and its physico-chemical constants were studied. In addition to the two standards used before, N-acetylcysteine was also administered by topic route. |Modification of mucus composition. Giraldez-Gras Method, in rabbit |Oral route n = 12-30 = number of test animals

[4] = oral; cited from earlier work
ciliary epithelium = experiment: Effect on the ciliary movement: mucus transport time in isolated dog trachea
Source text: This vehicle was also used as the blank.
Mucus transport time, in isolated dog trachea

Acute toxicity, rat = conditions: in vivo
Source text: (§5) The weight of the animals was of 180±20 g for rats and >25 g for mice.

Acute toxicity, mouse = conditions: in vivo
Source text: as §5

[5] = Acute toxicity, two species (overall statement); type: in vivo, Rat; Mouse; conditions: oral and intraperitoneal
Source text: as §5

[6] = Subacute toxicity in rat (one month); type: in vivo; conditions: 100, 300 and 1000 mg/kg/day
Protocol: In order to study the toxicity of ITA 275 in the rat, this compound was given at doses of 100, 300 and 1000 mg/kg/day during one month, to 100 rats (.male./.female.=50/50)

[7] = Subchronic toxicity in rat (six months); type: in vivo; conditions: 100, 300 and 1000 mg/kg/day
Source text: ITA 275 was given during six months to rats at the same doses as in the preceding test. The number of animals used was of 100 (.male./.female.=50/50).

[8] = rabbit, oral, 500 mg/kg, ***p < 0,005
[9] = ip, confidence limits on next printed line
[10] = ip, confidence limits printed on next line
[11] = rabbit, 0,1 ml/kg sol. 20% (topic)

Row | Compound | Max. efficiency % secretion increase ([1]; i.p.) | ED25 ([1]; ip, read-out: ED25) [mg/kg] | ED25 ([1]; p.o.) | Max. efficiency % secretion increase ([1]; p.o.) | Max. efficiency % secretion increase ([2]; p.o.) | Secretogogial activity (in words) [3] | ED50 ([2]; po, read-out: ED50) [mg/kg] | % increase with regard to controls (mucus; 500 mg/kg p.o.) | % Increase SH Groups (respiratory mucus; rabbit, oral, 500 mg/kg) | % Increase mucus weight (respiratory mucus; rabbit, oral, 500 mg/kg) | % Increase Muco-proteins (respiratory mucus; [8]) | LD50 (Acute toxicity, rat; [9]) [mg/kg] | LD50 (Acute toxicity, rat; po) [mg/kg] | LD50 (Acute toxicity, mouse; [10]) [mg/kg] | LD50 (Acute toxicity, mouse; po) [mg/kg] | also measured
1 | CN(Cc1cc(Br)cc(Br)c1N)C1CCCCC1 [Bisolvon, Bromhexine] | 26,0% | 32 | no corre- | 34,7% | 14,8% | below statistical significance and did not follow a constant dose-effect sequence |  |  |  |  |  |  |  |  |  | ED50 ([2]; p.o.): no corre-; % increase with regard to controls (mucus; 20 mg/kg p.o.): 20,6%; % increase with regard to controls (mucus; 40 mg/kg p.o.): 38,1%; % Increase Muco-proteins (respiratory mucus; rabbit, oral, 40 mg/kg): 4,9 ± 8,9%; % Increase SH Groups (respiratory mucus; rabbit, oral, 40 mg/kg): 0,3 ± 13,4%; % Increase mucus weight (respiratory mucus; rabbit, oral, 40 mg/kg): -6,1 ± 8,3%; % Increase total proteins (respiratory mucus; rabbit, oral, 40 mg/kg): 3,1 ± 14,4%; absorption when orally administered (in words) [4]: well adsorbed when orally administered; side effects (in words) [4]: practically no side effects
2 | CC(C)=CCSC[C@H](N)C(=O)O [ITA 275, S-(3-methyl-2-butenyl)-cysteine] | 42,7% | 218 |  | 20,7% | 57,0% | showed activity | 447 | 135,6% | 29,2 ± 14,4% | 466,1 ± 343,5% | 32,7 ± 14,3% | 3100 | > 4000 | 2090 | > 4000 | ED25 ([1]; po, read-out: ED25): 611 mg/kg; Expectorant activity compared with S-carboxymethylcysteine (in words) (mucus; oral route): somewhat more active than S-carboxymethylcysteine; content of total proteins (in words) (respiratory mucus; rabbit): increase in the content of total proteins; mucolytic property demonstrated by the release of -SH groups (in words) (respiratory mucus; rabbit): does not present the mucolytic property of N-acetylcysteine; mucus elimination (in words) (respiratory mucus; rabbit): great increase in mucus elimination; % increase of ciliary transport time (ciliary epithelium; 10 mM, 0 min, p<0,001): 162,3 ± 13,4%; % increase of ciliary transport time (ciliary epithelium; 10 mM, 10 min, p<0,01): 107,3 ± 21,8%; % increase of ciliary transport time (ciliary epithelium; 10 mM, 20 min): 16,2 ± 7,6%; duration of the increase in transport time (ciliary epithelium; isolated dog trachea): at least 20 min.; acute toxicity (in words) [5]: very low acute toxicity both by oral and intraperitoneal routes; acute toxicity compared with S-carboxymethylcysteine (in words) [5]: even smaller than that of S-carboxymethylcysteine; general behaviour [6]: No abnormalities; hematological values [6]: remained normal; liver weight [6]: slight increase in liver weight; weight increase, food and water intake [6]: did not modify either the weight increase or the food and water intake; weight of all other organs [6]: did not undergo weight changes; tolerability [7]: well tolerated
3 | CC(=O)N[C@@H](CS)C(=O)O [N-acetylcysteine] |  |  |  |  |  |  |  |  |  |  |  |  |  |  |  | % Increase mucus weight (respiratory mucus; [11]): 150,9 ± 30,8%; % Increase total proteins (respiratory mucus; [11]): 491,4 ± 311,1%; % Increase Muco-proteins (respiratory mucus; rabbit, 0,1 ml/kg sol. 20% (topic), **p < 0,01): 2450,3 ± 480,5%; % Increase SH Groups (respiratory mucus; rabbit, 0,1 ml/kg sol. 20% (topic), *p < 0,1): 305,5 ± 102,9%
4 | N[C@@H](CSCC(=O)O)C(=O)O [S-Carboxymethylcysteine, S-carboxymethylcysteine] | 22,3% | 764 | no corre- | 6,3% | 39,3% | below statistical significance and did not follow a constant dose-effect sequence | 1070 | 110,9% | 11,6 ± 34,2% | 16,4 ± 44,9% | 131,9 ± 91,8% | 2480 | > 4000 | 1780 | > 4000 | % Increase total proteins (respiratory mucus; rabbit, oral, 500 mg/kg): 31,7 ± 27,4%
5 | COc1cc2c3cc1Oc1cc(ccc1O)C[C@@H]1c4c(cc(OC)c(O)c4Oc4ccc(cc4)C[C@@H]3N(C)CC2)CC[N+]1(C)C [d-turbocurarine] |  |  |  |  |  |  |  |  |  |  |  |  |  |  |  | % increase of ciliary transport time (ciliary epithelium; 10^-4 g/ml, 0 min): 69,8 ± 12,3%; % increase of ciliary transport time (ciliary epithelium; 10^-4 g/ml, 10 min): 32,3 ± 14,5%
